Data published in US20060019270A1, “Global DNA methylation assessment using bisulfite PCR” (Board of Regents The University of Texas System, priority 2004, published 2006).

Experiments:
[1] = tested on: Alu element methylation in Hct116 cells; assay: Bisulfite Alu PCR and pyrosequencing, Hct116 cells treated with DAC; type: cell-based, human
Method: Hct116, RKO and SW48, colon cancer cell lines (American Type Culture Collection, Manassas, Va.), were cultured using standard methods. Cells were treated with 5 μM 5-aza-2′deoxycytidine (DAC) for three days prior to being harvested. DNA from cell lines and peripheral blood leukocytes was extracted using phenol-chloroform extraction methods well known to one with skill on the art.
Bisulfite modification of genomic DNA is known in the art (see Clark et. al, 1994). In brief, 1.5 μg prepared 10 mM hydroquinone (Sigma) and 520 μl of 3M Sodium Bisulfite (Sigma) at pH=5.0 were added and mixed. The samples were overlayed with mineral oil to prevent evaporation and incubated at 50° C. for 16 hours. […] Bisulfite treated DNA was stored at −20° C. until ready for use.
The Alu element PCR reaction was modified for pyrosequencing based methylation analysis. […] The PCR product was purified and quantitated using the PSQ HS 96 Pyrosequencing System (Pyrosequencing, Inc.; Westborough, Mass.). […]
Bisulfite Alu PCR products could also be analyzed by pyrosequencing allowing for a rapid analysis of multiple CpG sites. […] This method has the advantage of analyzing several methylation sites, is not restricted to restriction enzyme sites, avoids sequencing multiple clones, and allows accurate quantitation of multiple CpG methylation sites in the same reaction. […]

[2] = tested on: LINE-1 methylation in Hct116, RKO and SW48 cell lines; assay: LINE-1 methylation assay in cell lines treated with DAC (FIG. 14); type: cell-based, human; conditions: compared with untreated
Method: Hct116, RKO and SW48 cell lines were treated with 5-aza-2′deoxycytidine (DAC). The genomic DNA was treated with sodium bisulfite and a non-specific PCR was performed which amplified a pool of LINE-1 repetitive elements. The PCR product was then digested with HinfI, which only cuts repetitive elements that were originally methylated. The LINE-1 PCR assays the methylation of two sites and therefore HinfI can generate five possible digestion products of 285, 247, 166, 128 and 38 bp (not seen). The digested PCR product was separated by polyacrylamide gel electrophoresis and stained with ethidium bromide. The PCR bands were quantitated and the amount of methylation is shown below each gel lane.
Methylation of the L1 promotor was investigated by COBRA assay (Xiong and Laird, 1997), and bisulfite treatment was performed as described above. A […] PCR was carried out in 60 mM Tris-HCl pH=8.8, 15 mM Ammonium Sulfate, 0.5 mM MgCl2, 1 mM dNTP mix, and 1 unit of Taq polymerase. PCR cycling conditions were 95° C. for 30 seconds, 50° C. for 30 seconds, and 72° C. for 30 seconds for 28 cycles. […] Gels were stained with ethidium bromide, imaged, and quantitated in a Bio-Rad Geldoc 2000 imager (Bio-Rad, Hercules, Calif.). […]

## Nc1ncn([C@H]2C[C@H](O)[C@@H](CO)O2)c(=O)n1 [decitabine, 5-aza-2′-deoxycytidine]
[1]; pyrosequencing, untreated about 87%
  Alu methylation after DAC as percent of potential methylation sites: 62%
[1]; untreated 20.2%, SssI maximum 23.2%
  Alu methylation by pyrosequencing after DAC treatment (average of three CpG sites): 14.5%
[2]
  LINE-1 methylation in DAC treated cell lines: lower degree of methylation
